This passage reports IC50 results from BindingDB's records for doi:10.1021/jm020355o (University of Arizona, 2003).

The structures appear in SMILES notation.

This assay is described as follows: Antagonistic activity towards Melanocortin 1 receptor in Xenopus frog skin using competitive binding in the presence of 500 pM of alpha-melanocyte stimulating hormone.
The term IC50 denotes the concentration that gives 50% inhibition. As for `CC(C)[C@H](NC(=O)[C@@H]1CCC(=O)N2CCC[C@H]2C(=O)N[C@H](Cc2ccc3ccccc3c2)C(=O)N[C@@H](CCCN=C(N)N)C(=O)N[C@@H](Cc2c[nH]c3ccccc23)C(=O)N1)C(=O)N[C@H](C(=O)NCC(N)=O)C(C)C` [c[Pro-D-Nal(2')-Arg-Trp-Glu]-Val-Val-Gly-NH2], the IC50 stood at 1500 nM. With `CC(C)[C@H](NC(=O)[C@@H]1CCC(=O)NCC(=O)N2CCC[C@H]2C(=O)N[C@H](Cc2ccccc2)C(=O)N[C@@H](CCCN=C(N)N)C(=O)N[C@@H](Cc2c[nH]c3ccccc23)C(=O)N1)C(=O)N[C@H](C(=O)NCC(N)=O)C(C)C` [19-Benzyl-16-(3-guanidino-propyl)-13-(1H-indol-3-ylmethyl)-4,7,12,15,18,21-hexaoxo-docosahydro-3a,6,11,14,17,20-hexaaza-cyclopentacycloicosene-10-carboxylic acid {1-[1-(carbamoylmethyl-carbamoyl)-2-methyl-propylcarbamoyl]-2-methyl-propyl}-amide], the IC50 turned out to be 10000 nM.

Regarding `CC(C)[C@H](NC(=O)[C@@H]1CCC(=O)NCC(=O)N2CCC[C@H]2C(=O)N[C@H](Cc2ccc3ccccc3c2)C(=O)N[C@@H](CCCN=C(N)N)C(=O)N[C@@H](Cc2c[nH]c3ccccc23)C(=O)N1)C(=O)N[C@H](C(=O)NCC(N)=O)C(C)C` [c[Gly-Pro-D-Nal(2')-Arg-Trp-Glu]-Val-Val-Gly-NH2], the IC50 turned out to be 637 nM.
